This series deals with CCRIS mutagenicity, Ames/micronucleus/aberration tests. Nature of the series: CCRIS mutagenicity studies.
Setting [1] is: Test System: AMES SALMONELLA TYPHIMURIUM, Strain/Indicator: TA98, Metabolic Activation: NONE, Method: STANDARD PLATE.
The mark [2] stands for this setting: Test System: AMES SALMONELLA TYPHIMURIUM, Strain/Indicator: TA98, Metabolic Activation: RAT, LIVER, S-9, AROCLOR 1254, Method: STANDARD PLATE.
Where [3] appears, read: Test System: AMES SALMONELLA TYPHIMURIUM, Strain/Indicator: TA100, Metabolic Activation: NONE, Method: STANDARD PLATE.
[4] abbreviates: Test System: AMES SALMONELLA TYPHIMURIUM, Strain/Indicator: TA98, Metabolic Activation: NONE.
[5] abbreviates: Test System: AMES SALMONELLA TYPHIMURIUM, Strain/Indicator: TA98, Metabolic Activation: S-9.
[6] abbreviates: Test System: AMES SALMONELLA TYPHIMURIUM, Strain/Indicator: TA100, Metabolic Activation: NONE.
Setting [7] is: Test System: AMES SALMONELLA TYPHIMURIUM, Strain/Indicator: TA100, Metabolic Activation: S-9.

The source made the active and inactive calls. The rule behind the calls is not given here.

In the case of `CN(C)CCc1cc(O)ccc1CNc1ccccn1`, the mutagenic call (Test System: AMES SALMONELLA TYPHIMURIUM, Strain/Indicator: TA97, Metabolic Activation: NONE, Method: STANDARD PLATE) was “inactive; negative”; the mutagenic call (Test System: AMES SALMONELLA TYPHIMURIUM, Strain/Indicator: TA97, Metabolic Activation: RAT, LIVER, S-9, AROCLOR 1254, Method: STANDARD PLATE) was “inactive; negative”; the mutagenic call under setting [1] is “inactive; negative”; the mutagenic call under setting [2] is “inactive; negative”; the mutagenic call under setting [3] is “inactive; negative”; the mutagenic call (Test System: AMES SALMONELLA TYPHIMURIUM, Strain/Indicator: TA100, Metabolic Activation: RAT, LIVER, S-9, AROCLOR 1254, Method: STANDARD PLATE) was “inactive; negative”. Also, the mutagenic call (Test System: AMES SALMONELLA TYPHIMURIUM, Strain/Indicator: TA102, Metabolic Activation: NONE, Method: STANDARD PLATE) is “inactive; negative” and the mutagenic call (Test System: AMES SALMONELLA TYPHIMURIUM, Strain/Indicator: TA102, Metabolic Activation: RAT, LIVER, S-9, AROCLOR 1254, Method: STANDARD PLATE) was “inactive; negative”.
On to `Oc1ccc2cccc(O)c2c1`, for which the mutagenic call (Test System: AMES SALMONELLA TYPHIMURIUM, Strain/Indicator: TA2637, Metabolic Activation: NONE, Method: PREINCUBATION) was “active; positive”.
In the case of `Cc1cc(S(=O)(=O)O)c2c(C)ccc(C(C)C)cc1-2`, the mutagenic call was “inactive; negative” under setting [4]; “inactive; negative” under setting [5]; “inactive; negative” under setting [6]; “inactive; negative” under setting [7]; “inactive; negative” (Test System: AMES SALMONELLA TYPHIMURIUM, Strain/Indicator: TA1535, Metabolic Activation: NONE); “inactive; negative” (Test System: AMES SALMONELLA TYPHIMURIUM, Strain/Indicator: TA1535, Metabolic Activation: S-9). In addition, the mutagenic call runs as follows: (Test System: AMES SALMONELLA TYPHIMURIUM, Strain/Indicator: TA1537, Metabolic Activation: NONE) “inactive; negative”; (Test System: AMES SALMONELLA TYPHIMURIUM, Strain/Indicator: TA1537, Metabolic Activation: S-9) “inactive; negative”; (Test System: E. COLI, Strain/Indicator: WP2 UVRA, Metabolic Activation: NONE) “inactive; negative”; (Test System: E. COLI, Strain/Indicator: WP2 UVRA, Metabolic Activation: S-9) “inactive; negative”.
Regarding `Nc1ccc2c(c1)oc1ccccc12`, the mutagenic call was “active; positive” under setting [1]; “active; positive” (Test System: AMES SALMONELLA TYPHIMURIUM, Strain/Indicator: TA98, Metabolic Activation: S-9, PHENOBARBITAL AND 5,6-BENZOFLAVONE, Method: STANDARD PLATE); “inactive; negative” under setting [3]; “active; positive” (Test System: AMES SALMONELLA TYPHIMURIUM, Strain/Indicator: TA100, Metabolic Activation: S-9, PHENOBARBITAL AND 5,6-BENZOFLAVONE, Method: STANDARD PLATE).
As for `COC(=O)c1ccc([N+](=O)[O-])o1`, the mutagenic call is “active; positive” under setting [1] and “active; positive” under setting [3].
With `O=C1NCCN1/N=C/c1ccc([N+](=O)[O-])o1`, the mutagenic call was “active; positive” under setting [4], “inactive; negative” under setting [5], “active; positive” under setting [6] and “active; positive” under setting [7].
Turning to `Clc1ccc(C(c2ccccc2Cl)C(Cl)Cl)cc1` (stereo not drawn), the mutagenic call runs as follows: (End Point: IN VITRO CHROMOSOMAL ABERRATIONS, Test System: CHINESE HAMSTER OVARY CELLS, Metabolic Activation: NONE) “inactive; negative”; (End Point: IN VITRO CHROMOSOMAL ABERRATIONS, Test System: CHINESE HAMSTER OVARY CELLS, Metabolic Activation: RAT, LIVER, S-9, AROCLOR 1254) “inactive; negative”; (Test System: AMES SALMONELLA TYPHIMURIUM, Strain/Indicator: TA98, Metabolic Activation: MOUSE, LIVER, S-9, Method: STANDARD PLATE) “inactive; negative”; under setting [1], “inactive; negative”; (Test System: AMES SALMONELLA TYPHIMURIUM, Strain/Indicator: TA98, Metabolic Activation: RAT, LIVER, S-9, Method: STANDARD PLATE) “inactive; negative”; (Test System: AMES SALMONELLA TYPHIMURIUM, Strain/Indicator: TA100, Metabolic Activation: MOUSE, LUNG, S-9, Method: STANDARD PLATE) “inactive; negative”. The mutagenic call was “inactive; negative” under setting [3]; “inactive; negative” (Test System: AMES SALMONELLA TYPHIMURIUM, Strain/Indicator: TA100, Metabolic Activation: RAT, LIVER, S-9, Method: STANDARD PLATE); “inactive; negative” (Test System: UDS RODENT HEPATOCYTES, Strain/Indicator: THY INCORP (NON-S-PHASE), Metabolic Activation: NONE, Method: LIQUID SCINTILLATION COUNTING); “active; positive” (Test System: UDS RODENT LUNG CELLS, Strain/Indicator: THY INCORP (NON-S-PHASE), Metabolic Activation: NONE, Method: LIQUID SCINTILLATION COUNTING).
As for `c1cc2c3c(c4c(ccc5ccccc54)cc3c1)[C@H]1O[C@@H]21`, the mutagenic call is “active; positive” (Test System: AMES SALMONELLA TYPHIMURIUM, Strain/Indicator: TA98, Metabolic Activation: NONE, Method: PREINCUBATION); “active; positive” under setting [1]; “active; positive” under setting [2]; “active; positive” (Test System: CHINESE HAMSTER OVARY, Strain/Indicator: V-79/6-THIOGUANINE, Metabolic Activation: NONE, Method: FLASK ASSAY).
`O=[N+]([O-])C(Cl)(Br)Br`: the mutagenic call by setting is: (Test System: Ames Salmonella typhimurium, Strain/Indicator: RSJ100, Metabolic Activation: None, Method: Standard Plate) “inactive; negative”; (Test System: Ames Salmonella typhimurium, Strain/Indicator: RSJ100, Metabolic Activation: Rat, Liver, S-9, Aroclor, Method: Standard Plate) “inactive; negative”; (Test System: Ames Salmonella typhimurium, Strain/Indicator: TA98, Metabolic Activation: None, Method: Standard Plate) “inactive; negative”; (Test System: Ames Salmonella typhimurium, Strain/Indicator: TA98, Metabolic Activation: Rat, Liver, S-9, Aroclor, Method: Standard Plate) “inactive; negative”; (Test System: Ames Salmonella typhimurium, Strain/Indicator: TA100, Metabolic Activation: None, Method: Standard Plate) “inactive; negative”; (Test System: Ames Salmonella typhimurium, Strain/Indicator: TA100, Metabolic Activation: Rat, Liver, S-9, Aroclor, Method: Standard Plate) “inactive; negative”. In addition, the mutagenic call (Test System: Ames Salmonella typhimurium, Strain/Indicator: TA104, Metabolic Activation: None, Method: Standard Plate) is “inactive; negative”; the mutagenic call (Test System: Ames Salmonella typhimurium, Strain/Indicator: TA104, Metabolic Activation: Rat, Liver, S-9, Aroclor, Method: Standard Plate) is “inactive; negative”; the mutagenic call (Test System: Ames Salmonella typhimurium, Strain/Indicator: TPT100, Metabolic Activation: None, Method: Standard Plate) is “inactive; negative”.
Turning to `CCCC(=O)C1c2cccc(O)c2C(=O)c2c(O)cccc21`, the mutagenic call (Test System: AMES SALMONELLA TYPHIMURIUM, Strain/Indicator: TA1537, Metabolic Activation: NONE, Method: STANDARD PLATE) was “active; positive”; the mutagenic call (Test System: AMES SALMONELLA TYPHIMURIUM, Strain/Indicator: TA1537, Metabolic Activation: RAT, LIVER, S-9, PHENOBARBITAL AND BETA-NAPHTHOFLAVONE, Method: STANDARD PLATE) is “active; positive”; the mutagenic call (Test System: E. COLI, Strain/Indicator: WP2, Metabolic Activation: NONE, Method: STANDARD PLATE) is “inactive; negative”; the mutagenic call (Test System: E. COLI, Strain/Indicator: WP2, Metabolic Activation: RAT, LIVER, S-9, AROCLOR 1254, Method: STANDARD PLATE) is “inactive; negative”; the mutagenic call (Test System: E. COLI, Strain/Indicator: WP2 UVRA, Metabolic Activation: NONE, Method: STANDARD PLATE) was “inactive; negative”; the mutagenic call (Test System: E. COLI, Strain/Indicator: WP2 UVRA, Metabolic Activation: RAT, LIVER, S-9, AROCLOR 1254, Method: STANDARD PLATE) is “inactive; negative”.

Source of the values: PubChem BioAssay AID1259407 (Chemical Carcinogenesis Research Information System (CCRIS), 2018).
